Molecular target: T1, active p38 alpha enzyme (Upstate Biotechnology) (Homo sapiens, UniProt Q16539)
T1 construct: purchased Upstate Biotechnology
Assay: p38α biochemical assay (ATP turnover, luminescent detection, Cambrex PKlight)
Conditions: p38α kinase; Table 1 Biological Activity
In short: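 p38α + MapkapK2 (whole protein substrate) + 1.4 uM ATP final; Tris/MOPS buffer with MgCl2, CaCl2, EGTA, EDTA, glycerol, β-ME, BSA; 2 h at 30C; luminescent detection of remaining ATP.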

T1 sequence (Q16539 whole entry): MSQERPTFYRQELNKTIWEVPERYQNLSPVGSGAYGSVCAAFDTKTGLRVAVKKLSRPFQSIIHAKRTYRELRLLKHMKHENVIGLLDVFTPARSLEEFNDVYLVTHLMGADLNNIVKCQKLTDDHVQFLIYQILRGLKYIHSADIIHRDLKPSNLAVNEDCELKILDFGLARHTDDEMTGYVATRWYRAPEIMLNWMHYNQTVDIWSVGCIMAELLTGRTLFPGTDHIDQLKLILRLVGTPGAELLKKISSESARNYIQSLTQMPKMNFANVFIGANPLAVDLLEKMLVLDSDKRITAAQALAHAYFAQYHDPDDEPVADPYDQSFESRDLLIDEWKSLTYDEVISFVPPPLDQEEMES

Cc1nc(-c2ccc(F)cc2)c(-c2nc(C(=O)NCCC#N)cs2)s1 [Example 1713]
IC50: > 1000 nM

Cc1nc(-c2ccc(F)cc2)c(-c2nc(C(=O)NC3CCC3)cs2)s1 [Example 1714]
IC50: ≤ 1000 nM

Cc1nc(-c2ccc(F)cc2)c(-c2nc(C(=O)NCC3CC3)cs2)s1 [Example 1715]
IC50: ≤ 1000 nM

CCC(C)NC(=O)c1csc(-c2sc(C)nc2-c2ccc(F)cc2)n1 (stereo not shown) [Example 1716]
IC50: > 1000 nM

Cc1nc(-c2ccc(F)cc2)c(-c2nc(C(=O)NCC(C)C)cs2)s1 [Example 1717]
IC50: > 1000 nM

Cc1nc(-c2ccc(F)cc2)c(-c2nc(C(=O)NCCCO)cs2)s1 [Example 1718]
IC50: ≤ 1000 nM

Cc1nc(-c2ccc(F)cc2)c(-c2nc(C(=O)NC(C)CO)cs2)s1 (stereo not shown) [Example 1719]
IC50: ≤ 1000 nM

COCCNC(=O)c1csc(-c2sc(C)nc2-c2ccc(F)cc2)n1 [Example 1720]
IC50: > 1000 nM

Cc1nc(-c2ccc(F)cc2)c(-c2nc(C(=O)NC3CCCC3)cs2)s1 [Example 1721]
IC50: ≤ 1000 nM

CCCC(C)NC(=O)c1csc(-c2sc(C)nc2-c2ccc(F)cc2)n1 (stereo not shown) [Example 1722]
IC50: > 1000 nM

CCC(C)CNC(=O)c1csc(-c2sc(C)nc2-c2ccc(F)cc2)n1 (stereo not shown) [Example 1723]
IC50: > 1000 nM

Cc1nc(-c2ccc(F)cc2)c(-c2nc(C(=O)NC(C)C(C)C)cs2)s1 (stereo not shown) [Example 1724]
IC50: > 1000 nM

Cc1nc(-c2ccc(F)cc2)c(-c2nc(C(=O)NCCC(C)C)cs2)s1 [Example 1725]
IC50: ≤ 1000 nM

Cc1nc(-c2ccc(F)cc2)c(-c2nc(C(=O)NCCN(C)C)cs2)s1 [Example 1726]
IC50: > 1000 nM

COCC(C)NC(=O)c1csc(-c2sc(C)nc2-c2ccc(F)cc2)n1 (stereo not shown) [Example 1727]
IC50: ≤ 1000 nM

CCC(CO)NC(=O)c1csc(-c2sc(C)nc2-c2ccc(F)cc2)n1 (stereo not shown) [Example 1728]
IC50: ≤ 1000 nM

CCC(CO)NC(=O)c1csc(-c2sc(C)nc2-c2ccc(F)cc2)n1 (stereo not shown) [Example 1729]
IC50: ≤ 1000 nM

Cc1nc(-c2ccc(F)cc2)c(-c2nc(C(=O)NCCCCO)cs2)s1 [Example 1730]
IC50: ≤ 1000 nM

Cc1nc(-c2ccc(F)cc2)c(-c2nc(C(=O)NCc3ccco3)cs2)s1 [Example 1731]
IC50: ≤ 1000 nM

Cc1nc(-c2ccc(F)cc2)c(-c2nc(C(=O)NC3CCCCC3)cs2)s1 [Example 1732]
IC50: ≤ 1000 nM

Cc1nc(-c2ccc(F)cc2)c(-c2nc(C(=O)NCC3CCCO3)cs2)s1 (stereo not shown) [Example 1733]
IC50: ≤ 1000 nM

Cc1nc(-c2ccc(F)cc2)c(-c2nc(C(=O)NCCC(C)(C)C)cs2)s1 [Example 1734]
IC50: > 1000 nM

Cc1nc(-c2ccc(F)cc2)c(-c2nc(C(=O)NC(C)CC(C)C)cs2)s1 (stereo not shown) [Example 1735]
IC50: > 1000 nM

Cc1nc(-c2ccc(F)cc2)c(-c2nc(C(=O)NC3CONC3=O)cs2)s1 (stereo not shown) [Example 1736]
IC50: > 1000 nM

Cc1nc(-c2ccc(F)cc2)c(-c2nc(C(=O)NN3CCOCC3)cs2)s1 [Example 1737]
IC50: > 1000 nM

Cc1nc(-c2ccc(F)cc2)c(-c2nc(C(=O)NC(CO)C(C)C)cs2)s1 (stereo not shown) [Example 1738]
IC50: ≤ 1000 nM

Cc1nc(-c2ccc(F)cc2)c(-c2nc(C(=O)NCc3ccccc3)cs2)s1 [Example 1739]
IC50: ≤ 1000 nM

Cc1nc(-c2ccc(F)cc2)c(-c2nc(C(=O)NCc3cccnc3)cs2)s1 [Example 1740]
IC50: ≤ 1000 nM

Cc1nc(-c2ccc(F)cc2)c(-c2nc(C(=O)NCc3ccccn3)cs2)s1 [Example 1741]
IC50: ≤ 1000 nM

Cc1nc(-c2ccc(F)cc2)c(-c2nc(C(=O)NCc3ccncc3)cs2)s1 [Example 1742]
IC50: ≤ 1000 nM

Cc1nc(-c2ccc(F)cc2)c(-c2nc(C(=O)NCc3cccs3)cs2)s1 [Example 1743]
IC50: ≤ 1000 nM

Cc1nc(-c2ccc(F)cc2)c(-c2nc(C(=O)NC3CCC(C)CC3)cs2)s1 (stereo not shown) [Example 1744]
IC50: ≤ 1000 nM

Cc1nc(-c2ccc(F)cc2)c(-c2nc(C(=O)NCC3CCCCC3)cs2)s1 [Example 1745]
IC50: ≤ 1000 nM

Cc1nc(-c2ccc(F)cc2)c(-c2nc(C(=O)NC3CCCCCC3)cs2)s1 [Example 1746]
IC50: ≤ 1000 nM

Cc1nc(-c2ccc(F)cc2)c(-c2nc(C(=O)NC3CCCCC3C)cs2)s1 (stereo not shown) [Example 1747]
IC50: ≤ 1000 nM

Cc1nc(-c2ccc(F)cc2)c(-c2nc(C(=O)NCCN3CCCC3)cs2)s1 [Example 1748]
IC50: ≤ 1000 nM

Cc1nc(-c2ccc(F)cc2)c(-c2nc(C(=O)NN3CCN(C)CC3)cs2)s1 [Example 1749]
IC50: > 1000 nM

CCN(CC)CCNC(=O)c1csc(-c2sc(C)nc2-c2ccc(F)cc2)n1 [Example 1750]
IC50: ≤ 1000 nM

Cc1cccc(CNC(=O)c2csc(-c3sc(C)nc3-c3ccc(F)cc3)n2)c1 [Example 1751]
IC50: ≤ 1000 nM

Cc1nc(-c2ccc(F)cc2)c(-c2nc(C(=O)N[C@@H](C)c3ccccc3)cs2)s1 [Example 1752]
IC50: ≤ 1000 nM

Cc1nc(-c2ccc(F)cc2)c(-c2nc(C(=O)N[C@H](C)c3ccccc3)cs2)s1 [Example 1753]
IC50: ≤ 1000 nM

Cc1nc(-c2ccc(F)cc2)c(-c2nc(C(=O)NCCc3ccccc3)cs2)s1 [Example 1754]
IC50: ≤ 1000 nM

Cc1nc(-c2ccc(F)cc2)c(-c2nc(C(=O)NCc3ccccc3C)cs2)s1 [Example 1755]
IC50: ≤ 1000 nM

Cc1ccc(CNC(=O)c2csc(-c3sc(C)nc3-c3ccc(F)cc3)n2)cc1 [Example 1756]
IC50: ≤ 1000 nM

Cc1cnc(CNC(=O)c2csc(-c3sc(C)nc3-c3ccc(F)cc3)n2)cn1 [Example 1757]
IC50: ≤ 1000 nM

Cc1nc(-c2ccc(F)cc2)c(-c2nc(C(=O)NCc3cccc(F)c3)cs2)s1 [Example 1758]
IC50: ≤ 1000 nM

Cc1nc(-c2ccc(F)cc2)c(-c2nc(C(=O)NCc3ccc(F)cc3)cs2)s1 [Example 1759]
IC50: ≤ 1000 nM

Cc1nc(-c2ccc(F)cc2)c(-c2nc(C(=O)NCc3ccccc3F)cs2)s1 [Example 1760]
IC50: ≤ 1000 nM

Cc1nc(-c2ccc(F)cc2)c(-c2nc(C(=O)NCCCn3ccnc3)cs2)s1 [Example 1761]
IC50: ≤ 1000 nM

Cc1nc(-c2ccc(F)cc2)c(-c2nc(C(=O)NCCC3CCCN3C)cs2)s1 (stereo not shown) [Example 1762]
IC50: > 1000 nM

Cc1nc(-c2ccc(F)cc2)c(-c2nc(C(=O)NCCN3CCCCC3)cs2)s1 [Example 1763]
IC50: > 1000 nM

Cc1nc(-c2ccc(F)cc2)c(-c2nc(C(=O)NC(C)CCCC(C)C)cs2)s1 (stereo not shown) [Example 1764]
IC50: > 1000 nM

Cc1nc(-c2ccc(F)cc2)c(-c2nc(C(=O)NCCN3CCOCC3)cs2)s1 [Example 1765]
IC50: > 1000 nM

CCOC(=O)CC(C)NC(=O)c1csc(-c2sc(C)nc2-c2ccc(F)cc2)n1 (stereo not shown) [Example 1766]
IC50: ≤ 1000 nM

Cc1nc(-c2ccc(F)cc2)c(-c2nc(C(=O)NC3CCc4ccccc43)cs2)s1 (stereo not shown) [Example 1767]
IC50: > 1000 nM

Cc1ccc(CCNC(=O)c2csc(-c3sc(C)nc3-c3ccc(F)cc3)n2)cc1 [Example 1768]
IC50: > 1000 nM

Cc1ccc(C)c(CNC(=O)c2csc(-c3sc(C)nc3-c3ccc(F)cc3)n2)c1 [Example 1769]
IC50: > 1000 nM

Cc1ccc([C@H](C)NC(=O)c2csc(-c3sc(C)nc3-c3ccc(F)cc3)n2)cc1 [Example 1770]
IC50: > 1000 nM

Cc1ccc([C@@H](C)NC(=O)c2csc(-c3sc(C)nc3-c3ccc(F)cc3)n2)cc1 [Example 1771]
IC50: > 1000 nM

Cc1nc(-c2ccc(F)cc2)c(-c2nc(C(=O)NCC(C)c3ccccc3)cs2)s1 (stereo not shown) [Example 1772]
IC50: ≤ 1000 nM

Cc1nc(-c2ccc(F)cc2)c(-c2nc(C(=O)NCC(C)c3ccccc3)cs2)s1 (stereo not shown) [Example 1773]
IC50: > 1000 nM

Cc1nc(-c2ccc(F)cc2)c(-c2nc(C(=O)NCCCc3ccccc3)cs2)s1 [Example 1774]
IC50: > 1000 nM

Cc1nc(-c2ccc(F)cc2)c(-c2nc(C(=O)NCc3ccc(C)c(C)c3)cs2)s1 [Example 1775]
IC50: ≤ 1000 nM

Cc1nc(-c2ccc(F)cc2)c(-c2nc(C(=O)NC(C)Cc3ccncc3)cs2)s1 (stereo not shown) [Example 1776]
IC50: > 1000 nM

Cc1nc(-c2ccc(F)cc2)c(-c2nc(C(=O)NCCc3ccc(O)cc3)cs2)s1 [Example 1777]
IC50: ≤ 1000 nM

Cc1nc(-c2ccc(F)cc2)c(-c2nc(C(=O)NCCOc3ccccc3)cs2)s1 [Example 1778]
IC50: ≤ 1000 nM

COc1ccccc1CNC(=O)c1csc(-c2sc(C)nc2-c2ccc(F)cc2)n1 [Example 1779]
IC50: ≤ 1000 nM

COc1ccc(CNC(=O)c2csc(-c3sc(C)nc3-c3ccc(F)cc3)n2)cc1 [Example 1780]
IC50: ≤ 1000 nM

COc1cccc(CNC(=O)c2csc(-c3sc(C)nc3-c3ccc(F)cc3)n2)c1 [Example 1781]
IC50: ≤ 1000 nM

Cc1nc(-c2ccc(F)cc2)c(-c2nc(C(=O)NCCc3ccc(F)cc3)cs2)s1 [Example 1782]
IC50: > 1000 nM

Cc1nc(-c2ccc(F)cc2)c(-c2nc(C(=O)NCCc3ccccc3F)cs2)s1 [Example 1783]
IC50: ≤ 1000 nM

Cc1nc(-c2ccc(F)cc2)c(-c2nc(C(=O)NCCc3cccc(F)c3)cs2)s1 [Example 1784]
IC50: ≤ 1000 nM

Cc1nc(-c2ccc(F)cc2)c(-c2nc(C(=O)NCc3cccc(Cl)c3)cs2)s1 [Example 1785]
IC50: ≤ 1000 nM

Cc1nc(-c2ccc(F)cc2)c(-c2nc(C(=O)NCc3ccccc3Cl)cs2)s1 [Example 1786]
IC50: ≤ 1000 nM

Cc1nc(-c2ccc(F)cc2)c(-c2nc(C(=O)NCc3ccc(Cl)cc3)cs2)s1 [Example 1787]
IC50: ≤ 1000 nM

Cc1nc(-c2ccc(F)cc2)c(-c2nc(C(=O)NCCCN3CCCC3=O)cs2)s1 [Example 1788]
IC50: ≤ 1000 nM

Cc1nc(-c2ccc(F)cc2)c(-c2nc(C(=O)NCc3ccc(F)cc3F)cs2)s1 [Example 1789]
IC50: ≤ 1000 nM

Cc1nc(-c2ccc(F)cc2)c(-c2nc(C(=O)NCc3ccc(F)c(F)c3)cs2)s1 [Example 1790]
IC50: ≤ 1000 nM

Cc1nc(-c2ccc(F)cc2)c(-c2nc(C(=O)NCc3cc(F)cc(F)c3)cs2)s1 [Example 1791]
IC50: ≤ 1000 nM

Cc1nc(-c2ccc(F)cc2)c(-c2nc(C(=O)NCCCN3CCOCC3)cs2)s1 [Example 1792]
IC50: ≤ 1000 nM

Cc1nc(-c2ccc(F)cc2)c(-c2nc(C(=O)NCCN(C(C)C)C(C)C)cs2)s1 [Example 1793]
IC50: > 1000 nM

Cc1nc(-c2ccc(F)cc2)c(-c2nc(C(=O)NC(C)CCc3ccccc3)cs2)s1 (stereo not shown) [Example 1794]
IC50: > 1000 nM
